# pEC50: −log10 of the molar value.
# Legend:
# [1] = system: Hepatocellular carcinoma organoid; assay: Antiproliferative activity against C57BL/6 mouse Hepatocellular carcinoma organoids harboring myristoylated Akt1 and overexpressing Myc assessed as reduction in cell viability measured after 5 days in presence of sorafenib by Celltiter-glo assay; assay type: functional, tissue-based; conditions: Neoplasm, dose 1-5 µM, time 5.0 day
# Hep 3B2 = assay: Antiproliferative activity against human Hep3B cells assessed as reduction in cell viability measured after 5 days in presence of sorafenib by Celltiter-glo assay; assay type: functional, cell-based; conditions: for pEC50: 120 h
# [2] = molecular target: T1, Oxysterols receptor LXR-alpha (Homo sapiens, UniProt Q13133); assay: Agonist activity at GST-tagged LXRalpha LBD (unknown origin) measured after 6 hrs in presence of fluorescein-TRAP220/DRIP-2 by TR-FRET assay
# T1 sequence (Q13133 whole entry): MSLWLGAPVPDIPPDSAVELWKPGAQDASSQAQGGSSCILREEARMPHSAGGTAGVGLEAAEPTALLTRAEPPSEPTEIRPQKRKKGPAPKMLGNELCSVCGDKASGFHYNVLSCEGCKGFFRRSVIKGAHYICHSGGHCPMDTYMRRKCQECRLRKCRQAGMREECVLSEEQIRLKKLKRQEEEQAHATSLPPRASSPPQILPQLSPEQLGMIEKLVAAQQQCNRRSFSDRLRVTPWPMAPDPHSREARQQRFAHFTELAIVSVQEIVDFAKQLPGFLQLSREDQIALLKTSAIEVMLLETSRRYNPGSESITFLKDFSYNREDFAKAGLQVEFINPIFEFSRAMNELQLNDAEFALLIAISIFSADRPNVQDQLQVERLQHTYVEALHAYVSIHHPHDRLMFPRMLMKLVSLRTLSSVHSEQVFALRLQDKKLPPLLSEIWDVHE
# [3] = molecular target: T2, Oxysterols receptor LXR-beta (Homo sapiens, UniProt P55055); assay: Agonist activity at GST-tagged LXRbeta LBD (unknown origin) measured after 6 hrs in presence of fluorescein-TRAP220/DRIP-2 by TR-FRET assay
# T2 sequence (P55055 whole entry): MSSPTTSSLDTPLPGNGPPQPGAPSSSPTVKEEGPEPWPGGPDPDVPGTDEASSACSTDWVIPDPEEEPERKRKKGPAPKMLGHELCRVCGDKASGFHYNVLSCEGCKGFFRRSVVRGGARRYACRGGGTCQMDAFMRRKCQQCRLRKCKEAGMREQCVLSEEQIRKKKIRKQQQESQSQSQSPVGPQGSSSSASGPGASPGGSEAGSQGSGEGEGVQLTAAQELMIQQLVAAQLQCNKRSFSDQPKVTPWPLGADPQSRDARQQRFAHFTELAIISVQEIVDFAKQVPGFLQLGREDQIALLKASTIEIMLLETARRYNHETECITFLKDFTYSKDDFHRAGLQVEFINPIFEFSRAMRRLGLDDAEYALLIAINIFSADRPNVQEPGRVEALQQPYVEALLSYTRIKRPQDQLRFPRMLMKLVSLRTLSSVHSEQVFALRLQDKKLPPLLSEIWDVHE
Compound,Activity [1],pEC50 (Hep 3B2),Activity (Hep 3B2; time 5.0 day),EC50 [2],EC50 [3]
O=C(O)Cc1cccc(OCCCN(Cc2cccc(C(F)(F)F)c2Cl)CC(c2ccccc2)c2ccccc2)c1,Dose-dependent-effect,5.72,Dose-dependent-effect,,
CC(C)(C)OC(=O)NC1CCN(c2ccc(NC3=C(c4ccccc4)C(=O)N(Cc4ccccc4)C3=O)cc2)CC1,,,,Not_active,Not_active
COc1ccc(NC2=C(c3ccccc3)C(=O)N(Cc3ccccc3)C2=O)cc1,,5.42,,,
O=S(=O)(c1ccccc1)N(CC(F)(F)F)c1ccc(C(O)(C(F)(F)F)C(F)(F)F)cc1,Dose-dependent-effect,,,,
CN1CCN(c2ccc(NC3=C(c4ccccc4)C(=O)N(Cc4ccccc4)C3=O)cc2)CC1,,,,Not_active,Not_active

# Reference: ChEMBL document CHEMBL6115048, “Uncovering α-Selectivity for Liver X Receptor Agonists for Lipotoxic Cancer Therapies” (J Med Chem, 2025)
